Data on 1 compound can be found in patent US5948792A, “Fluorine-containing 1,4-disubstituted piperidine derivatives” (Banyu Pharmaceutical Co., Ltd., priority 1996, dated 1999).

By Ki is commonly meant a measure of affinity in units of concentration, obtained from inhibition or displacement. The term ED50 denotes the midpoint of the dose-response relation.

One experiment concerns the target T1, Muscarinic M2 receptor (Homo sapiens, UniProt P08172).
T1 construct: purchased Receptor Biology, Inc; host or cells: CHO cells (membranes)
T1 sequence (P08172 1-466): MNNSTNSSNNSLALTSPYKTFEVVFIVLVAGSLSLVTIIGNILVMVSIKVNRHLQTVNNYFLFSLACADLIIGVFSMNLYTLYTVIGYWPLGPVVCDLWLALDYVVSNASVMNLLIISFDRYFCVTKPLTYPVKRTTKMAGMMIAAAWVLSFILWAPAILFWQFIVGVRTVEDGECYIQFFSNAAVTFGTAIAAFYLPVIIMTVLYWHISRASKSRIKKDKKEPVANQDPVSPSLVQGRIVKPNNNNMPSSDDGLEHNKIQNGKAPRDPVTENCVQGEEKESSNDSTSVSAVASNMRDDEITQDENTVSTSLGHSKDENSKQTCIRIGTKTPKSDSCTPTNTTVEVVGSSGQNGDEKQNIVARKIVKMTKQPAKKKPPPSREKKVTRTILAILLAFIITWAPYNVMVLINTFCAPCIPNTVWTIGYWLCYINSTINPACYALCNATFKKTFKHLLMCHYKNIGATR
Briefly: Inhibition of binding of [3H]-N-methylscopolamine to muscarinic M2 receptor. To be noted: CHO cell membranes expressing cloned human receptor; 0.2 nM [3H]-N-methylscopolamine, pH 7.4, 2 hours, 25° C; read-out: Ki M2 (inhibitory effects on binding to muscarinic M2 receptor). On the procedure: (§1) Tests on Inhibition of Binding to Muscarinic Receptors
(§2) These tests were performed according to a modification of the method of Hargreaves et al. (Br. J. Pharmacol. 107: 494-501, 1992). Membranes from CHO cells expressing cloned human m1-m5 (Receptor Biology, Inc.) were incubated with 0.2 nM [^3 H]-N-methylscopolamine and each a compound of the present invention to be tested in 0.5 ml of 50 mM Tris-HCl-10 mM MgCl2 -1 mM EDTA (pH 7.4) for 2 hours at 25° C. Free and membrane-bound [^3 H]-N-methylscopolamine were separated by filtration over glass filters (UniFilter-GF/C; Packard Instruments Co., Inc.) using cell harvester (Filtermate™ 196; Packard Instruments Co., Inc.). Then the filter was washed four times with 1 ml of ice-cold Tris-HCl (pH 7.4) and dried at 50° C. After adding a scintillator (Microscinti 0; Packard Instruments Co., Inc.), the radioactivity was counted by a liquid scintillation counter (TopCount™; Packard Instruments Co., Inc.). Non-specific binding was measured in the presence of 1 μM N-methylscopolamine.

Experiment [1] deals with T2, Muscarinic M3 receptor (Homo sapiens, UniProt P20309).
T2 construct: purchased Receptor Biology, Inc; host or cells: CHO cells (membranes)
Briefly: Inhibition of binding of [3H]-N-methylscopolamine to muscarinic M3 receptor. On the procedure: as §1, §2

Experiment [2] deals with T3, Muscarinic M3 Receptor (Rattus norvegicus, UniProt P08483).
T3 construct: male rats of the Sprague-Dawley strain; from tissue; host or cells: airways of living male Sprague-Dawley rats (in vivo)
The experiment in a line: Bronchodilation in rats (i.v.), inhibition of acetylcholine-induced increase in airway resistance. It is filed as in vivo. To be noted: iv, 5 min, acetylcholine 50 μg/kg i.v. 5 minutes after test compound, read-out: Inhibition of Airway Contraction ED50 iv. On the procedure:
(§3) Tests for Antagonism Against Muscarinic M3 Receptor (in vivo)
1-A) Tests for Bronchodilation in Rats (i.v.).
Eight- to eleven-weeks-old male rats of the Sprague-Dawley strain, weighing 380-420 g, were anesthetized with urethane (750 mg/kg. i.p.) and α-chloralose (37.5 mg/kg, i.p.). The bronchus of each rat was intubated, and the right jugular vein was cannulated for drug administration. […] To evoke an increase in airway resistance, acetylcholine (50 μg/kg, i.v.) was administered to the animals. The acetylcholine-induced airway resistance increase was measured 5 minutes before and 5 minutes after administration of test compound, and the ratio of the airway resistance of the latter to the former was calculated. In controls, isotonic sodium chloride solution was used in place of the test compounds and otherwise identical procedures were repeated, the calculated ratio being set to be 100%.

Experiment [3] deals with Muscarinic M3 Receptor. Briefly: Bronchodilation in dogs (p.o.), methacholine provocation test. It is filed as in vivo, dog. To be noted: beagle dogs, 1 mg/kg p.o., 4 hours after administration. On the procedure:
as §3
2) Tests for Bronchodilation in Dogs (p.o.)
Twelve- to twenty-four-months-old male beagle dogs (weighing 10-15 kg) were anesthetized with pentobarbital (30 mg/kg, i.v.) and intubated in their bronchus. Their airway sensitivity to inhaled methacholine were measured at least twice at two-weeks interval, and the dogs showing a reproducible methacholine reaction threshold values^1) ware selected. To those dogs whose methacholine reaction threshold value had been confirmed, the test compounds were orally administered (1 mg/kg). Four hours after the administration, the methacholine provocation test was conducted, and then the methacholine reaction threshold value^2) after administration of the test compound was obtained.
The bronchodilator activity of the test compound was determined following equation: [formula]
The methacholine provocation test was conducted using Astograph TCK-6100H Model (Chest). Methacholine chloride was used as bronchoconstritor, which was diluted with isotonic sodium chloride solution in 10-grade concentration levels starting from 40,000 μg/ml, as 20,000, 10,000, 5,000, 2,500, 1,250, 625, 312.5, 156 and 78 μg/ml. These methacholine aerosols were inhaled to the test animal each for 1 min, starting from the lowest concentration level, and respiration resistance was continuously recorded. The concentration level at which the respiration resistance reached twice the initial value was recorded as the methacholine threshold value.

In experiment [4] the target is T3, Muscarinic M3 Receptor. The experiment in a line: Bronchodilation in rats (p.o.), inhibition of acetylcholine-induced increase in airway resistance. It is filed as in vivo. The settings on record: po, 1 h, acetylcholine 50 μg/kg i.v. 60 minutes after test compound, read-out: Inhibition of Airway Contraction ED50 po. On the procedure: as §3
1-B) Tests for Bronchodilation in Rats (p.o.)
Eight- to eleven-weeks-old male rats of Sprague-Dawley strain weighing 380-420 g were orally administered with a test compound. The rats were treated in the identical manner as in the i.v. test, starting 30 minutes after the administration, and their airway resistance values were measured. The acetylcholine-(50 μg/kg, i.v.) induced airway resistance increase were measured 60 minutes after the administration of test compounds. In controls, isotonic sodium chloride solution was used in place of the test compounds and otherwise identical procedures were repeated, the ratio between the two airway resistance values whereby being set to be 100%.

T3 sequence (P08483 whole entry): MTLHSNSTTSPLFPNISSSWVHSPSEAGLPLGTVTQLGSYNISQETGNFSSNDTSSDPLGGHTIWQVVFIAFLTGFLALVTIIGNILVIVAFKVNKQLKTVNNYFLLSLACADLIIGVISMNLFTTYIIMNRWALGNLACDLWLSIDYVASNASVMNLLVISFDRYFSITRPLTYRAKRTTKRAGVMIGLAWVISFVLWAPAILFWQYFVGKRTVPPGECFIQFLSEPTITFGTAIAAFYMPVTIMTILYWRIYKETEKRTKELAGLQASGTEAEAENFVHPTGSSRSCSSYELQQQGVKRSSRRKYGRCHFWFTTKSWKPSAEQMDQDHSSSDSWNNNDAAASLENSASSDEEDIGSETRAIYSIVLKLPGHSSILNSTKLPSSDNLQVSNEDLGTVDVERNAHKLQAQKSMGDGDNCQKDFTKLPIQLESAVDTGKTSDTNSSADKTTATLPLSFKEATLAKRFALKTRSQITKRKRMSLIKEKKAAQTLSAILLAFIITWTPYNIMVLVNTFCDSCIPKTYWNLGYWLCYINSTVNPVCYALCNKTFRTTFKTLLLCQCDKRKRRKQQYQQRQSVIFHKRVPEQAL
T2 sequence (P20309 whole entry): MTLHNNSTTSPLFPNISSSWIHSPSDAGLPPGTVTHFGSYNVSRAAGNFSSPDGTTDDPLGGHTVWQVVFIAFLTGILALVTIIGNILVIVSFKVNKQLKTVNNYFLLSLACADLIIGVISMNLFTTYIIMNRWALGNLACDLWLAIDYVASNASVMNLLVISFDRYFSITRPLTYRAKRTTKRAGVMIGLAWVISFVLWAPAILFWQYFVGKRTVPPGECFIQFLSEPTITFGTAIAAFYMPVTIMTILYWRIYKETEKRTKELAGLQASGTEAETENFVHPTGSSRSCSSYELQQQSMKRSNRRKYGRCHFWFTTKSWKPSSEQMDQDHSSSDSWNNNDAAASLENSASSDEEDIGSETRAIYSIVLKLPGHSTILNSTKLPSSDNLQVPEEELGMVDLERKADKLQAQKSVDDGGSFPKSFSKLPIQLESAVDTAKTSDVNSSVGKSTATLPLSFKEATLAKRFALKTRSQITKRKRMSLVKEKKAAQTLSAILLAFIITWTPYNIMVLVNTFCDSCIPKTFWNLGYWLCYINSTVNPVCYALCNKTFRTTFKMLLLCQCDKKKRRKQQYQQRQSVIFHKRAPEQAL

Take `COc1cc(CN2CCC(NC(=O)[C@](O)(c3ccccc3)[C@@H]3CCC(F)(F)C3)CC2)ccc1N` [Example 26, (2R)-N-[1-(4-amino-3-methoxybenzyl)piperidin-4-yl]-2-[(1R)-3,3-difluorocyclopentyl]-2-hydroxy-2-phenylacetamide]: the inhibition constant Ki was found to be 24 µM at Muscarinic M2 receptor and 0.022 µM at Muscarinic M3 receptor [1] (CHO cell membranes expressing cloned human receptor, 0.2 nM [3H]-N-methylscopolamine, pH 7.4, 2 hours, 25° C, read-out: Ki M3 (inhibitory effects on binding to muscarinic M3 receptor)). Moreover, the “M2/M3 (ratio of binding Ki)” value on Muscarinic M3 receptor [1] (selectivity ratio of Ki values, binding) is 1100. In addition, the values for the ED50 on Muscarinic M3 Receptor [2] and on Muscarinic M3 Receptor [4] were 0.37 mg/kg and 0.95 mg/kg, respectively. In the experiment on Muscarinic M3 Receptor [3], the “Methacholine Inhalation-inducing Test shift value (after 4 hrs.)” value is more than 64.
